Laboratory results published in patent US10980231B2, “Insect repellent” (Kao Corporation, priority 2015, dated 2021).

system: not given; experiment: not given; conditions: cited from earlier work

For `CCN(CC)C(=O)c1cccc(C)c1` [DEET, N,N-diethyl-3-methylbenzamide], the skin permeability is listed as “high skin permeability”.

system: insects; experiment: not given; conditions: repellent use; cited from earlier work

For `CCN(CC)C(=O)c1cccc(C)c1` [DEET, N,N-diethyl-3-methylbenzamide], the duration is given as 2 to 3 h.

system: Asian tiger mosquito; experiment: Evaluation of inhibition of seeking behavior of mosquito for human arm (landing count); format: in vivo; set-up: tested at 0.1 vol %; conditions: sample 0.1 vol % in ethanol on breathable sheet on arm; landings in 5 minutes vs ethanol only; female mosquitoes
Experimental: Mosquitoes were prepared for evaluation in the same manner as in Example 1. Approximately 150 to 200 female Asian tiger mosquitoes were transferred in a plastic cage (30×30×30 cm). […] The other three sides were covered with a net, preventing a smell from remaining in the box. A breathable sheet for disposable diapers (air permeance (JIS P8117): 2 sec/300 mL·32 sheets or higher, water vapor transmission rate (JIS Z0208): 1 g/100 cm^2·1 hr or higher) was cut into a size of 6 cm×6 cm, and the resultant was fixed with a tape to the inner side of a Qualatex glove (AS ONE 8-4053-02) cut in 5 cm×5 cm, and […] of an evaluation sample, the concentration of which had been adjusted to 0.1 vol % with ethanol, was uniformly applied onto the breathable sheet. After the application, the resultant was left to stand for approximately 5 minutes, and the attraction test was conducted. The arm was covered with the Qualatex glove provided with the breathable sheet, and inserted in the plastic cage. After the insertion, the number of mosquitoes which landed on the breathable sheet in 5 minutes was counted. In the case that a mosquito landed a plurality of times, all of the landings were counted. In view of the influence of a sample on the mosquitoes, the test was conducted just four times in one cage, and the cage was then replaced with another cage and other mosquitoes were used for the subsequent tests. The inhibitory rate relative to the number of landings with application of ethanol solvent only was calculated to determine the inhibitory effect. Inhibitory rate (%)=100×(1−[number of landings with application of sample]/[number of landings with application of ethanol]) (Equation 2)

First: CCCCCCCCCCO [1-Decanol, 1-decanol]
Second: C=CCCCCCCCCO [9-Decen-1-ol, 9-decen-1-ol]
The “Inhibitory rate (%)” value of the first is higher: 97.5% for the first, 93.5% for the second.

Going from `C=CC(O)CCCCC` (centres unmarked) [1-Octen-3-ol, 1-octen-3-ol] to `CCCCC(CC)C(=O)OCC` (centres unmarked) [Ethyl 2-ethylhexanoate, ethyl 2-ethylhexanoate], the “Inhibitory rate (%)” value falls from 70.5% to 66%.

Going from `CC1=CC(C)C(CO)C(C)C1` (centres unmarked) [2,4,6-Trimethyl-3-cyclohexene-1-methanol, 2,4,6-trimethyl-3-cyclohexene-1-methanol] to `CCOC(=O)C(C)C1CCCCC1` (centres unmarked) [Ethyl 2-cyclohexylpropionate, ethyl 2-cyclohexylpropionate], the “Inhibitory rate (%)” value falls from 89% to 58%.

Compared with `CCCc1ccc(O)c(OC)c1` [2-Methoxy-4-propylphenol, 2-methoxy-4-propylphenol], `CCOC(=O)Cc1ccccc1` [Ethyl phenylacetate, ethyl phenylacetate] is lower in “Inhibitory rate (%)” value: 100% for the first, 38.5% for the second.

For `CCC/C=C/COC(C)=O` [trans-2-Hexenyl acetate, trans-2-hexenyl acetate], the “Inhibitory rate (%)” value was 54%.
